Patent publication US20060116390A1, “Hepatitis c virus inhibitors” (priority 2003, published 2006)
Like-named read-outs stand apart in the source and are kept apart here.

Test system: HCV proteins in Rep5.1 cells (replicon cell line)
Experiment: Inhibitory activity of HCV: cell-based ELISA in replicon cell line Rep5.1 (decrease of HCV proteins)
Set-up: species or system hepatitis C virus
Settings: Rep5.1 cells, 72 hours with drug
How it was run: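 Rep5.1 replicon cells (5000/well, DMEM-10 with 500 μg/ml G418) were given serially diluted drug 4 h after seeding. After 72 h, cells were fixed in methanol/acetone and HCV proteins detected by cell-based ELISA using replicon-specific patient plasma antibodies. IC50 is the concentration giving 50% protein decrease versus the no-drug control.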

[1] = Hepatitis C virus, 72 h, concentration at which 50% of HCV proteins was decreased, Table 2, read-out: IC50
[2] = Hepatitis C virus, 72 h, decrease of HCV proteins measured by HCV antibody, Table 1, read-out: Level (IC50 values classified)

SMILES	IC50 [1]	IC50 [2]	IC50 (concentration at which 50% of HCV proteins was decreased, Table 2, read-out: IC50)
CC1=C(C(=O)OCCc2ccccc2)C(CF)NC(=S)N1 (stereo not drawn) [33′, 4-fluoromethyl-6-methyl-2-thioxo-1,2,3,4-tetrahydro-pyrimidine-5-carboxylic acid phenethyl ester]	1000 nM	< 1000 nM	–
COc1ccccc1CCCOC(=O)C1=C(C)NC(=S)NC1 [Compound 104, 6-methyl-2-thioxo-1,2,3,4-tetrahydro-pyrimidine-5-carboxylic acid 3-(2-methoxy-phenyl)-propyl ester]	< 400 nM	< 1000 nM	–
CC1=C(C(=O)OCCc2sccc2C)CNC(=S)N1 [Compound 257, 6-methyl-2-thioxo-1,2,3,4-tetrahydro-pyrimidine-5-carboxylic acid 2-(3-methyl-thiophen-2-yl)-ethyl ester]	< 400 nM	< 1000 nM	–
CC1=C(C(=O)OCCCc2ccsc2)C(CF)NC(=S)N1 (stereo not drawn) [53′, 4-fluoromethyl-6-methyl-2-thioxo-1,2,3,4-tetrahydro-pyrimidine-5-carboxylic acid 3-thiophen-3-yl-propyl ester]	18000 nM	10000 to 20000 nM	–
COc1ccc(COC(=O)C2=C(C)NC(=S)NC2)c(F)c1 [Compound 177, 6-methyl-2-thioxo-1,2,3,4-tetrahydro-pyrimidine-5-carboxylic acid 2-fluoro-4-methoxy-benzyl ester]	2500 nM	1000 to 10000 nM	–
CC1=C(C(=O)OCC2(c3ccc(Cl)cc3)CC2)C(CO)NC(=S)N1 (stereo not drawn) [52″, 4-hydroxymethyl-6-methyl-2-thioxo-1,2,3,4-tetrahydro-pyrimidine-5-carboxylic acid 1-(4-chloro-phenyl)-cyclopropylmethyl ester]	10000 nM	1000 to 10000 nM	–
COc1ccc(Cl)cc1CCOC(=O)C1=C(C)NC(=S)NC1CO (stereo not drawn) [56″, 4-hydroxymethyl-6-methyl-2-thioxo-1,2,3,4-tetrahydro-pyrimidine-5-carboxylic acid 2-(5-chloro-2-methoxy-phenyl)-ethyl ester]	600 nM	< 1000 nM	–
CC1=C(C(=O)OCCc2cccs2)CNC(=S)N1 [Compound 206, 6-methyl-2-thioxo-1,2,3,4-tetrahydro-pyrimidine-5-carboxylic acid 2-thiophen-2-yl-ethyl ester]	600 nM	< 1000 nM	–
CC1=C(C(=O)OCCOCCc2ccsc2)C(CO)NC(=S)N1 (stereo not drawn) [16″, 4-hydroxymethyl-6-methyl-2-thioxo-1,2,3,4-tetrahydro-pyrimidine-5-carboxylic acid 2-(2-thiophen-3-yl-ethoxy)-ethyl ester]	> 100000 nM	> 20000 nM	–
CC1=C(C(=O)OCCc2ccsc2)C(c2ccccc2)NC(=S)N1 (stereo not drawn) [4′, 6-methyl-4-phenyl-2-thioxo-1,2,3,4-tetrahydro-pyrimidine-5-carboxylic acid 2-thiophen-3-yl-ethyl ester]	51000 nM	> 20000 nM	–
CC1=C(C(=O)OCc2c(C)cccc2C)CNC(=S)N1 [Compound 184, 6-methyl-2-thioxo-1,2,3,4-tetrahydro-pyrimidine-5-carboxylic acid 2,6-dimethyl-benzyl ester]	19000 nM	10000 to 20000 nM	–
CC1=C(C(=O)OC2CCCC2)CNC(=S)N1 [Compound 67, 6-methyl-2-thioxo-1,2,3,4-tetrahydro-pyrimidine-5-carboxylic acid cyclopentyl ester]	6000 nM	1000 to 10000 nM	–
CC1=C(C(=O)OCc2ccc(C)cc2C)CNC(=S)N1 [Compound 122, 6-methyl-2-thioxo-1,2,3,4-tetrahydro-pyrimidine-5-carboxylic acid 2,4-dimethyl-benzyl ester]	800 nM	< 1000 nM	–
CC1=C(C(=O)OCc2cc(C)cc(C)c2)CNC(=S)N1 [Compound 82, 6-methyl-2-thioxo-1,2,3,4-tetrahydro-pyrimidine-5-carboxylic acid 3,5-dimethyl-benzyl ester]	300 nM	< 1000 nM	–
CC1=C(C(=O)OCc2cc(Cl)cc(Cl)c2)C(CO)NC(=S)N1 (stereo not drawn) [34″, 4-hydroxymethyl-6-methyl-2-thioxo-1,2,3,4-tetrahydro-pyrimidine-5-carboxylic acid 3,5-dichloro-benzyl ester]	2600 nM	1000 to 10000 nM	–
CC1=C(C(=O)OCCc2csc([N+](=O)[O-])c2)CNC(=S)N1 [26′, 6-methyl-2-thioxo-1,2,3,4-tetrahydro-pyrimidine-5-carboxylic acid 2-(5-nitro-thiophen-3-yl)-ethyl ester]	900 nM	< 1000 nM	–
CC1=C(C(=O)OCc2ccc(-c3cccs3)s2)CNC(=S)N1 [Compound 218, 6-methyl-2-thioxo-1,2,3,4-tetrahydro-pyrimidine-5-carboxylic acid[2,2′]bithiophenyl-5-ylmethyl ester]	–	–	< 400 nM
CC1=C(C(=O)OCc2cccc(SC(F)(F)F)c2)C(CO)NC(=S)N1 (stereo not drawn) [33″, 4-hydroxymethyl-6-methyl-2-thioxo-1,2,3,4-tetrahydro-pyrimidine-5-carboxylic acid 3-trifluoromethylsulfanyl-benzyl ester]	< 400 nM	< 1000 nM	–
CC1=C(C(=O)OCc2cccc(Oc3ccccc3)c2)C(CO)NC(=S)N1 (stereo not drawn) [46″, 4-hydroxymethyl-6-methyl-2-thioxo-1,2,3,4-tetrahydro-pyrimidine-5-carboxylic acid 3-phenoxy-benzyl ester]	< 400 nM	< 1000 nM	–
CC1=C(C(=O)OC2CCN(Cc3ccccc3)CC2)CNC(=S)N1 [Compound 86, 6-methyl-2-thioxo-1,2,3,4-tetrahydro-pyrimidine-5-carboxylic acid 1-benzyl-piperidin-4-yl ester]	> 100000 nM	> 20000 nM	–
CC1=C(C(=O)OCCc2ccsc2)C(c2cnc[nH]2)NC(=S)N1 (stereo not drawn) [50′, 4-(3H-imidazol-4-yl)-6-methyl-2-thioxo-1,2,3,4-tetrahydro-pyrimidine-5-carboxylic acid 2-thiophen-3-yl-ethyl ester]	> 100000 nM	> 20000 nM	–
COc1cc(COC(=O)C2=C(C)NC(=S)NC2)cc(Br)c1OC [Compound 178, 6-methyl-2-thioxo-1,2,3,4-tetrahydro-pyrimidine-5-carboxylic acid 3-bromo-4,5-dimethoxy-benzyl ester]	1500 nM	1000 to 10000 nM	–
CC1=C(C(=O)OCc2ccc(Cl)s2)CNC(=S)N1 [Compound 233, 6-methyl-2-thioxo-1,2,3,4-tetrahydro-pyrimidine-5-carboxylic acid 5-chloro-thiophen-2-ylmethyl ester]	200 nM	< 1000 nM	–
COc1ccccc1CCOC(=O)C1=C(C)NC(=S)NC1 [Compound 115, 6-methyl-2-thioxo-1,2,3,4-tetrahydro-pyrimidine-5-carboxylic acid 2-(2-methoxy-phenyl)-ethyl ester]	700 nM	< 1000 nM	–
CC1=C(C(=O)OCCc2ccsc2)C(CF)NC(=S)N1 (stereo not drawn) [Compound 252, 4-fluoromethyl-6-methyl-2-thioxo-1,2,3,4-tetrahydro-pyrimidine-5-carboxylic acid 2-thiophen-3-yl-ethyl ester]	1400 nM	1000 to 10000 nM	–
CCCCCC(CC)OC(=O)C1=C(C)NC(=S)NC1 (stereo not drawn) [Compound 47, 6-methyl-2-thioxo-1,2,3,4-tetrahydro-pyrimidine-5-carboxylic acid 1-ethyl-hexyl ester]	< 500 nM	< 1000 nM	–
